Assay results as given in the supplement of paper PMC10307832.

Assays:
Assay in all cases: relative viability (nuclei count vs DMSO), 5 days (fraction); higher = more cells survive
Mirin + AZD7762 = compound: N=C1NC(=O)/C(=C/c2ccc(O)cc2)S1 [Mirin] + NC(=O)Nc1cc(-c2cccc(F)c2)sc1C(=O)N[C@H]1CCCNC1 [AZD7762] (partner 0.2 µM)
Outline: (§1)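 Nuclei were stained with Hoechst during a one-step fixation (final 0.05% Triton X-100, 1% formaldehyde, 1 ug/ml Hoechst) carried out 5 days after dosing, then counted on 4× images. The cells, lung cancer lines in 1536-well plates, had been dosed by pin tool the day after seeding with one drug alone or a fixed anchor-drug dose plus five library-drug doses (not always all listed) in √10 steps. Relative viability is the nuclei count in treated wells divided by that in vehicle wells, and each value is the median of duplicate plates.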

[1] = compound: CCn1c(-c2nonc2N)nc2cnc(Oc3cccc(NC(=O)c4ccc(OCCN5CCOCC5)cc4)c3)cc21 + Cc1cc(Nc2cc(N3CCN(C)CC3)nc(Sc3ccc(NC(=O)C4CC4)cc3)n2)n[nH]1 [Tozasertib] (partner 0.1 µM)
Outline: as §1

[2] = compound: CCC1=CN=CN=C1N2CCN(CC2)CC3=NC4=C(N3)C=C(C=C4)C(F)(F)F + Cc1cc(Nc2cc(N3CCN(C)CC3)nc(Sc3ccc(NC(=O)C4CC4)cc3)n2)n[nH]1 [Tozasertib] (partner 0.1 µM)
Outline: as §1

[3] = compound: CCn1c(-c2nonc2N)nc2cnc(Oc3cccc(NC(=O)c4ccc(OCCN5CCOCC5)cc4)c3)cc21 + CCNC(=O)c1noc(-c2cc(C(C)C)c(O)cc2O)c1-c1ccc(CN2CCOCC2)cc1 [Luminespib] (partner 0.01 µM)
Outline: as §1

Row | Cell Line | relative viability (Mirin + AZD7762; first compound 0.25 µM) | relative viability (Mirin + AZD7762; first compound 0.7906 µM) | relative viability (Mirin + AZD7762; first compound 2.5 µM) | relative viability (Mirin + AZD7762; first compound 7.906 µM) | relative viability (Mirin + AZD7762; first compound 25 µM) | relative viability ([1]; first compound 0.04 µM) | relative viability ([1]; first compound 0.1265 µM) | relative viability ([1]; first compound 0.4 µM) | relative viability ([1]; first compound 1.265 µM) | relative viability ([1]; first compound 4 µM) | relative viability ([2]; first compound 0.04 µM) | relative viability ([2]; first compound 0.1265 µM) | relative viability ([2]; first compound 0.4 µM) | relative viability ([2]; first compound 1.265 µM) | relative viability ([2]; first compound 4 µM) | relative viability ([3]; first compound 0.04 µM) | relative viability ([3]; first compound 0.1265 µM) | relative viability ([3]; first compound 0.4 µM) | relative viability ([3]; first compound 1.265 µM) | relative viability ([3]; first compound 4 µM)
1 | ChaGo-K-1 | 0.832 | 0.825 | 0.868 | 0.835 | 0.755 | 0.242 | 0.244 | 0.232 | 0.211 | 0.165 | 0.206 | 0.256 | 0.233 | 0.195 | 0.224 | 0.586 | 0.691 | 0.706 | 0.48 | 0.454
2 | HOP-62 | 0.729 | 1.08 | 0.478 | 0.549 | 0.383 | 0.393 | 0.445 | 0.344 | 0.283 | 0.234 | 0.43 | 0.362 | 0.39 | 0.381 | 0.39 | 1.11 | 1.01 | 0.936 | 0.764 | 0.735
3 | NCI-H1915 | 0.674 | 0.726 | 0.712 | 0.59 | 0.745 | 0.499 | 0.457 | 0.417 | 0.396 | 0.406 | 0.458 | 0.412 | 0.429 | 0.356 | 0.356 | 0.905 | 0.831 | 0.949 | 0.775 | 0.716
4 | BEN | 0.711 | 0.711 | 0.735 | 0.574 | 0.494 | 0.453 | 0.415 | 0.518 | 0.494 | 0.357 | 0.462 | 0.528 | 0.559 | 0.433 | 0.477 | 0.496 | 0.235 | 0.158 | 0.163 | 0.249
5 | NCI-H1437 | 1.06 | 1.18 | 1.11 | 1.1 | 1.06 | 0.432 | 0.382 | 0.383 | 0.315 | 0.314 | 0.419 | 0.364 | 0.366 | 0.367 | 0.294 | 1.25 | 1.23 | 1.11 | 0.897 | 0.766
6 | EMC-BAC-2 | 0.977 | 1.1 | 1.26 | 0.92 | 1.05 | 0.231 | 0.283 | 0.249 | 0.165 | 0.155 | 0.293 | 0.3 | 0.279 | – | 0.268 | 1.13 | 1.16 | 1.1 | 0.863 | 0.662
7 | NCI-H2087 | 1.31 | 1.59 | 1.45 | 1.3 | 1.75 | 0.252 | 0.243 | 0.218 | 0.152 | 0.142 | 0.26 | 0.243 | 0.221 | 0.182 | 0.146 | 0.161 | 0.143 | 0.181 | 0.153 | 0.143
8 | NCI-H650 | 1.1 | 1.03 | 0.968 | 0.992 | 0.974 | 1.01 | 0.639 | 0.41 | 0.283 | 0.271 | 0.78 | 0.76 | 0.765 | 0.616 | 0.753 | 0.959 | 0.741 | 0.424 | 0.242 | 0.296
